Reference: the NIST ThermoML archive (doi:10.1021/je700271n)
Numbers after ± are expanded uncertainties.

Conditions: Liquid

Row | SMILES | vapor or sublimation pressure (273.15 K) [kPa] | vapor or sublimation pressure (283.15 K) [kPa] | vapor or sublimation pressure (293.15 K) [kPa] | vapor or sublimation pressure (303.15 K) [kPa] | vapor or sublimation pressure (313.15 K) [kPa] | vapor or sublimation pressure (323.15 K) [kPa]
1 | CCC [propane] | 476 ± 6 | 632 ± 8 | 833 ± 10 | 1079 ± 13 | 1366 ± 17 | 1709 ± 21
2 | FC(C(F)(F)F)C(F)(F)F [1,1,1,2,3,3,3-heptafluoropropane] | 195 ± 3 | 280 ± 4 | 389 ± 5 | 527 ± 7 | 704 ± 9 | 920 ± 11
